According to patent US10010541B2, “Modulation of tissue transglutaminase activation in disease” (The Board of Trustees of the Leland Stanford Junior …, priority 2014, dated 2018):

Experiments:
TG2 = target: T1, TG2 (Homo sapiens, UniProt P21980); assay: glutamate dehydrogenase-coupled deamidation assay, substrate Cbz-Gln-Gly; type: biochemical; settings: irreversible inhibition model, full progress curves
T1 sequence (P21980 1-687): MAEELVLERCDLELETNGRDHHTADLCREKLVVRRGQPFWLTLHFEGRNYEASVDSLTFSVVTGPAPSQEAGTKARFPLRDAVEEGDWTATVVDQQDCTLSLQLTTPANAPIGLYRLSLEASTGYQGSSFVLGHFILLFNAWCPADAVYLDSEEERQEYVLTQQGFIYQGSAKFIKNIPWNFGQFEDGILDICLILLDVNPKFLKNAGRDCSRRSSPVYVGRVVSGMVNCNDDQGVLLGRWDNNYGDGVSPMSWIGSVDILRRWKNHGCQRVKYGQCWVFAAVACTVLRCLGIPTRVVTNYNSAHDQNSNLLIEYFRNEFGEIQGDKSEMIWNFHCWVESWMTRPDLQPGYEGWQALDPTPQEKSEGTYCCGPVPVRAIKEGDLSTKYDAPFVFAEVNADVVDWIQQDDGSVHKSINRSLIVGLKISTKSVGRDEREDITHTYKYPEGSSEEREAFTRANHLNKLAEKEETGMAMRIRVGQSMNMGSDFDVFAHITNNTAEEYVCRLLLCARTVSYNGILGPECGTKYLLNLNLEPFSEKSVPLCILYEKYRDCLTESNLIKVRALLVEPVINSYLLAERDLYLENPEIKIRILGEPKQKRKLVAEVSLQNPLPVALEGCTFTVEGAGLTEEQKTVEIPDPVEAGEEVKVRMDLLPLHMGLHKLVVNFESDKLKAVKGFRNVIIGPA

TG1 = target: T2, TG1 (Homo sapiens, UniProt P22735); assay: glutamate dehydrogenase-coupled deamidation assay, substrate Cbz-Gln-Ser; type: biochemical; settings: irreversible inhibition model, full progress curves
T2 sequence (P22735 1-817): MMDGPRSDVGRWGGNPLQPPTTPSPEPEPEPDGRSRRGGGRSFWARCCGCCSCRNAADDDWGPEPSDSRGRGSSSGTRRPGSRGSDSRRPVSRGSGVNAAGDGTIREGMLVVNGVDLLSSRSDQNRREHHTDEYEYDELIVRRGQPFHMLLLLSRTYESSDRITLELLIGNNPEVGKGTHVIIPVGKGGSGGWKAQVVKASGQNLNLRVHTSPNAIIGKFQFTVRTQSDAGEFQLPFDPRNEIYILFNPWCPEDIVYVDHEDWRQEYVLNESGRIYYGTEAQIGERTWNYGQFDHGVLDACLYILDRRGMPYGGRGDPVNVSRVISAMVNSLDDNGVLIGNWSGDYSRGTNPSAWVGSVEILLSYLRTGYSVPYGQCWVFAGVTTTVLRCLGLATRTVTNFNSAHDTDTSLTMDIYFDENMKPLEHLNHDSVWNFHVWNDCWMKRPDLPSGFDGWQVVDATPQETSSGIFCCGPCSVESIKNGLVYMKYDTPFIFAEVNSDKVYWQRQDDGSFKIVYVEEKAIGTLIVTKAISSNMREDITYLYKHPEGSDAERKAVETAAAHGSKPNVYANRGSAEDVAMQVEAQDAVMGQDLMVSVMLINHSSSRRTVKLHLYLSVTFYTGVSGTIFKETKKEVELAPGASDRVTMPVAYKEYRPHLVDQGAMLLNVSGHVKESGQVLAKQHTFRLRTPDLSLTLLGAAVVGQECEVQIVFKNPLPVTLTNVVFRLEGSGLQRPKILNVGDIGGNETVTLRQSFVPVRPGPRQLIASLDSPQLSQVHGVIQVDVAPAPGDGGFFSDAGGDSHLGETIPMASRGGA

Row | SMILES | kinh/Ki TG2 (TG2) [M⁻¹ s⁻¹] | kinh/Ki TG1 (TG1) [M⁻¹ s⁻¹]
1 | O=C(N[C@@H]1C[C@@H](C(=O)NC[C@@H]2CC(Br)=NO2)N(C(=O)OCc2cnc3ccccc3c2)C1)c1cnccn1 [Compound 6, (2S,4R)-quinolin-3-ylmethyl 2-((((S)-3-bromo-4,5-dihydroisoxazol-5-yl)methyl)carbamoyl)-4-(pyrazine-2-carboxamido)pyrrolidine-1-carboxylate] | 262 | 200
2 | O=C(NC[C@@H]1CC(Br)=NO1)[C@@H]1C[C@@H](NC(=O)C2(C(=O)O)CCC2)CN1C(=O)OCc1cnc2ccccc2c1 [Compound 7, 1-(((3R,5S)-5-((((S)-3-bromo-4,5-dihydroisoxazol-5-yl)methyl)carbamoyl)-1-((quinolin-3-ylmethoxy)carbonyl)pyrrolidin-3-yl)carbamoyl)cyclobutanecarboxylic acid] | 230 | 96.7
3 | O=C(NC[C@@H]1CC(Br)=NO1)[C@@H]1C[C@@H](c2ccccc2O)CN1C(=O)OCc1cnc2ccccc2c1 [Compound 10, (2S,4S)-quinolin-3-ylmethyl 2-((((S)-3-bromo-4,5-dihydroisoxazol-5-yl)methyl)carbamoyl)-4-(2-hydroxyphenyl)pyrrolidine-1-carboxylate] | 563 | 492
4 | O=C(NC[C@@H]1CC(Br)=NO1)[C@@H]1C[C@@H](c2cccc(O)c2)CN1C(=O)OCc1cnc2ccccc2c1 [Compound 11, (2S,4S)-quinolin-3-ylmethyl 2-((((S)-3-bromo-4,5-dihydroisoxazol-5-yl)methyl)carbamoyl)-4-(3-hydroxyphenyl)pyrrolidine-1-carboxylate] | 870 | 645
5 | O=C(NC[C@@H]1CC(Br)=NO1)[C@@H]1C[C@@H](c2ccc(O)cc2)CN1C(=O)OCc1cnc2ccccc2c1 [Compound 12, (2S,4S)-quinolin-3-ylmethyl 2-((((S)-3-bromo-4,5-dihydroisoxazol-5-yl)methyl)carbamoyl)-4-(4-hydroxyphenyl)pyrrolidine-1-carboxylate] | 1520 | 1510
6 | O=C(NC[C@@H]1CC(Br)=NO1)[C@@H]1C[C@@H](c2cccc(Cl)c2)CN1C(=O)OCc1cnc2ccccc2c1 [Compound 13, (2S,4S)-quinolin-3-ylmethyl 2-((((S)-3-bromo-4,5-dihydroisoxazol-5-yl)methyl)carbamoyl)-4-(3-chlorophenyl)pyrrolidine-1-carboxylate] | 422 | 695
7 | O=C(NC[C@@H]1CC(Br)=NO1)[C@@H]1C[C@@H](c2ccc(Cl)cc2)CN1C(=O)OCc1cnc2ccccc2c1 [Compound 14, (2S,4S)-quinolin-3-ylmethyl 2-((((S)-3-bromo-4,5-dihydroisoxazol-5-yl)methyl)carbamoyl)-4-(4-chlorophenyl)pyrrolidine-1-carboxylate] | 200 | 257
8 | O=C(NC[C@@H]1CC(Br)=NO1)[C@@H]1C[C@@H](c2c[nH]c3ccc(F)cc23)CN1C(=O)OCc1cnc2ccccc2c1 [Compound 15, (2S,4S)-quinolin-3-ylmethyl 2-((((S)-3-bromo-4,5-dihydroisoxazol-5-yl)methyl)carbamoyl)-4-(5-fluoro-1H-indol-3-yl)pyrrolidine-1-carboxylate] | 307 | 800

Next, values leading:

Row | kinh/Ki TG2 (TG2) [M⁻¹ s⁻¹] | kinh/Ki TG1 (TG1) [M⁻¹ s⁻¹] | SMILES
9 | 430 | 410 | O=C(N[C@@H]1C[C@@H](C(=O)NC[C@@H]2CC(Br)=NO2)N(C(=O)OCc2cnc3ccccc3c2)C1)c1ccccc1 [Compound 1, (2S,4R)-quinolin-3-ylmethyl 4-benzamido-2-((((S)-3-bromo-4,5-dihydroisoxazol-5-yl)methyl)carbamoyl)pyrrolidine-1-carboxylate]
10 | 618 | 452 | O=C(N[C@@H]1C[C@@H](C(=O)NC[C@@H]2CC(Br)=NO2)N(C(=O)OCc2cnc3ccccc3c2)C1)c1ccccc1O [Compound 2, (2S,4R)-quinolin-3-ylmethyl 2-((((S)-3-bromo-4,5-dihydroisoxazol-5-yl)methyl)carbamoyl)-4-(2-hydroxybenzamido)pyrrolidine-1-carboxylate]
11 | 603 | 302 | O=C(N[C@@H]1C[C@@H](C(=O)NC[C@@H]2CC(Br)=NO2)N(C(=O)OCc2cnc3ccccc3c2)C1)c1cccc(O)c1 [Compound 3, (2S,4R)-quinolin-3-ylmethyl 2-((((S)-3-bromo-4,5-dihydroisoxazol-5-yl)methyl)carbamoyl)-4-(3-hydroxybenzamido)pyrrolidine-1-carboxylate]
12 | 940 | 522 | O=C(N[C@@H]1C[C@@H](C(=O)NC[C@@H]2CC(Br)=NO2)N(C(=O)OCc2cnc3ccccc3c2)C1)c1ccc(O)cc1 [Compound 4, (2S,4R)-quinolin-3-ylmethyl 2-((((S)-3-bromo-4,5-dihydroisoxazol-5-yl)methyl)carbamoyl)-4-(4-hydroxybenzamido)pyrrolidine-1-carboxylate]
13 | 810 | 1100 | O=C(NC[C@@H]1CC(Br)=NO1)[C@@H]1C[C@@H](c2ccccc2)CN1C(=O)OCc1cnc2ccccc2c1 [Compound 8, (2S,4S)-quinolin-3-ylmethyl 2-((((S)-3-bromo-4,5-dihydroisoxazol-5-yl)methyl)carbamoyl)-4-phenylpyrrolidine-1-carboxylate]
14 | 295 | 287 | O=C(NC[C@@H]1CC(Br)=NO1)[C@@H]1C[C@H](c2ccccc2)CN1C(=O)OCc1cnc2ccccc2c1 [Compound 9, (2S,4R)-quinolin-3-ylmethyl 2-((((S)-3-bromo-4,5-dihydroisoxazol-5-yl)methyl)carbamoyl)-4-phenylpyrrolidine-1-carboxylate]
